Assay results published in US20120172384A1, “HETEROCYCLYLAMINOPYRIMIDINES AS KINASE INHIBITORS” (priority 2009, published 2012).
Where “and” joins values, the source holds several entries; their conditions need not be identical. Identical values can stand only once.

Experiments:
[1] = test system: rheumatoid arthritis; details: rheumatoid arthritis (Weinblatt et al., 2008); cited from earlier work
[2] = target: T1, JAK3 (Homo sapiens, UniProt P52333); assay: JAK3 kinobeads assay; type: binding; details: cell lysate, dot blot with JAK3 specific antibody
T1 construct: endogenous in cells
T1 sequence (P52333 1-1124): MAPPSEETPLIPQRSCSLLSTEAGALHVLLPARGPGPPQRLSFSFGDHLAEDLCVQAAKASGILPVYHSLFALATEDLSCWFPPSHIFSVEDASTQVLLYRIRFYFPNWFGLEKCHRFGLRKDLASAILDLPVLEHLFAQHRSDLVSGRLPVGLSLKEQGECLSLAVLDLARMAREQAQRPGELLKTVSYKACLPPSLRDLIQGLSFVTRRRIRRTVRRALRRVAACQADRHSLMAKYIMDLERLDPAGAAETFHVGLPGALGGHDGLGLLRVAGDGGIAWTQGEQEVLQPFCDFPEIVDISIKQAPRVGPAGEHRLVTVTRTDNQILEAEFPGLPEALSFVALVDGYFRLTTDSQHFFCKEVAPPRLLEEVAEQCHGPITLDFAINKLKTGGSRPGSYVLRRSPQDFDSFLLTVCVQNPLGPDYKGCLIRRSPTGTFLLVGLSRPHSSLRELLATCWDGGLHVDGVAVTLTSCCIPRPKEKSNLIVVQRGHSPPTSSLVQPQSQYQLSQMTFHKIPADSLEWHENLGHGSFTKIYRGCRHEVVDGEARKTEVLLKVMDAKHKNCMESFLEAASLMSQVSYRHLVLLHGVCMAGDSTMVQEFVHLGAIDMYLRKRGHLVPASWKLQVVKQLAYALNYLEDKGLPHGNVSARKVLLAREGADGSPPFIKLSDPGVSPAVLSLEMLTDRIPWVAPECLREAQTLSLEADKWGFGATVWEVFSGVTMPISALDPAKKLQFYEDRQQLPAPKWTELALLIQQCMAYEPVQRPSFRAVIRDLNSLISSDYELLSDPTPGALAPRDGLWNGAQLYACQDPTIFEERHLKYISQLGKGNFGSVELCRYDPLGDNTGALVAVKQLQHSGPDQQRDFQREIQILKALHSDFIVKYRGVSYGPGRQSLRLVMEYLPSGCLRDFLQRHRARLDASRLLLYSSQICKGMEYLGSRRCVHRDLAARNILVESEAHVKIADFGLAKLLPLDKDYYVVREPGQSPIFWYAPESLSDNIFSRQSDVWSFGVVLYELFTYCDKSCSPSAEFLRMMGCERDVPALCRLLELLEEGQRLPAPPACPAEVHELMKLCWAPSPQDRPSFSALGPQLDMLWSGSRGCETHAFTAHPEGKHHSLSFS
In short: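 In this competition pulldown, test compounds at various concentrations were incubated in cell lysate together with beads carrying an immobilized aminopyrido-pyrimidine ligand. Bead-bound proteins were eluted, and JAK3 was quantified by dot blot with a JAK3-specific antibody and infrared detection.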

[3] = target: T2, ZAP-70 (Homo sapiens, UniProt P43403); assay: ZAP-70 kinobeads assay; type: binding; details: cell lysate, dot blot with ZAP-70 antibody
T2 construct: endogenous in cells
T2 sequence (P43403 1-619): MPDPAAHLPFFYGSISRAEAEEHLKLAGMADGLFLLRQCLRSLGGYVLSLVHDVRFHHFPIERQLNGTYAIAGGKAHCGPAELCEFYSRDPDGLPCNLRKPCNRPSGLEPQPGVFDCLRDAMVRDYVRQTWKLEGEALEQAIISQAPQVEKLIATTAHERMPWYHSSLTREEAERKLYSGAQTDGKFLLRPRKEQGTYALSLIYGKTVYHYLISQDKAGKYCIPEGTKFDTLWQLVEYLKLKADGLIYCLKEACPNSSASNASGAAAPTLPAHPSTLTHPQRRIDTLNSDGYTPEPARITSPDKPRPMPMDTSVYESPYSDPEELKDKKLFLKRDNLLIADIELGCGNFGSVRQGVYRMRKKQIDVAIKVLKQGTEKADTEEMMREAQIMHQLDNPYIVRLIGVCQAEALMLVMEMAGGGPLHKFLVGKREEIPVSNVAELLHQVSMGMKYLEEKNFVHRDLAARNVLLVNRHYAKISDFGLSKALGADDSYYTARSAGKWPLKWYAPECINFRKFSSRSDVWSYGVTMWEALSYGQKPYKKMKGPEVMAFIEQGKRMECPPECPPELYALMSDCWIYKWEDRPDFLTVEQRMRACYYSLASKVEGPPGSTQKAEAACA
Procedure: The compounds of the present invention as described in the previous examples were tested in the ZAP-70 kinobeads assay as described (EP-A 1862802 and WO-A 2007/137867). Briefly, test compounds (at various concentrations) and the affinity matrix with the immobilized aminopyrido-pyrimidine ligand 24 are added to cell lysate aliquots and allowed to bind to the proteins in the lysate sample. After the incubation time the beads with captured proteins are separated from the lysate. Bound proteins are then eluted and the presence ZAP-70 is detected and quantified using a specific antibody in a dot blot procedure and the Odyssey infrared detection system.

[4] = test system: rheumatoid arthritis; details: animal model of rheumatoid arthritis (Pine et al., 2007); cited from earlier work

COc1cc(Nc2ncc(F)c(Nc3ccc4c(n3)N(COP(=O)(O)O)C(=O)C(C)(C)O4)n2)cc(OC)c1OC [Example R788]
efficacy in clinical study [1]: demonstrated efficacy

COc1ccc(Nc2nc(Nc3cnn(C)c3)ncc2Cl)c(NS(C)(=O)=O)c1 [Example 6, N-(2-(5-chloro-2-(1-methyl-1H-pyrazol-4-ylamino)pyrimidin-4-ylamino)-5-methoxyphenyl)methanesulfonamide]
IC50 [2]: ≤ 100 nM | IC50 [3]: ≤ 100 nM

CCn1nc(C)cc1Nc1ncc(Cl)c(Nc2ccc(OC)cc2NS(C)(=O)=O)n1 [Example 12, N-(2-(5-chloro-2-(1-ethyl-3-methyl-1H-pyrazol-5-ylamino)pyrimidin-4-ylamino)-5-methoxyphenyl)methanesulfonamide]
IC50 [2]: 100 to 1000 nM | IC50 [3]: ≤ 100 nM

COCCn1nc(C)cc1Nc1ncc(Cl)c(Nc2ccc(OC)cc2NS(C)(=O)=O)n1 [Example 96, N-(2-((5-chloro-2-((1-(2-methoxyethyl)-3-methyl-1H-pyrazol-5-yl)amino)pyrimidin-4-yl)amino)-5-methoxyphenyl)methanesulfonamide]
IC50 [2]: 1000 to 10000 nM | IC50 [3]: 100 to 1000 nM

COc1ccc(Nc2nc(Nc3cn[nH]c3)ncc2F)c(NS(C)(=O)=O)c1 [Example 24, N-(2-(2-(1H-pyrazol-4-ylamino)-5-fluoropyrimidin-4-ylamino)-5-methoxyphenyl)methanesulfonamide]
IC50 [2]: ≤ 100 nM | IC50 [3]: 100 to 1000 nM

COc1ccc(Nc2nc(Nc3cc(C)nn3CCO)ncc2Cl)c(NS(C)(=O)=O)c1 [Example 94, N-(2-((5-chloro-2-((1-(2-hydroxyethyl)-3-methyl-1H-pyrazol-5-yl)amino)pyrimidin-4-yl)amino)-5-methoxyphenyl)methanesulfonamide]
IC50 [2]: 1000 to 10000 nM | IC50 [3]: 100 to 1000 nM

COc1ccc(Nc2nc(Nc3cc(C)nn3C)ncc2Cl)c(NS(C)(=O)=O)c1 [Example 8, N-(2-(5-chloro-2-(1,3-dimethyl-1H-pyrazol-5-ylamino)pyrimidin-4-ylamino)-5-methoxyphenyl)methanesulfonamide]
IC50 [2]: ≤ 100 nM | IC50 [3]: ≤ 100 nM

COc1ccc(Nc2nc(Nc3ccnn3C)ncc2Cl)c(NS(C)(=O)=O)c1 [Example 5, N-(2-(5-chloro-2-(1-methyl-1H-pyrazol-5-ylamino)pyrimidin-4-ylamino)-5-methoxyphenyl)methanesulfonamide]
IC50 [2]: 100 to 1000 nM | IC50 [3]: ≤ 100 nM

COc1ccc(Nc2nc(Nc3nonc3OC)ncc2Cl)c(NS(C)(=O)=O)c1 [Example 17, N-(2-(5-chloro-2-(4-methoxy-1,2,5-oxadiazol-3-ylamino)pyrimidin-4-ylamino)-5-methoxyphenyl)methanesulfonamide]
IC50 [2]: 1000 to 10000 nM | IC50 [3]: 1000 to 10000 nM

CCn1cc(Nc2ncc(Cl)c(Nc3ccc(OC)cc3NS(C)(=O)=O)n2)c(C)n1 [Example 28, N-(2-(5-chloro-2-(1-ethyl-3-methyl-1H-pyrazol-4-ylamino)pyrimidin-4-ylamino)-5-methoxyphenyl)methanesulfonamide]
IC50 [2]: ≤ 100 nM | IC50 [3]: 100 to 1000 nM

COc1ccc(Nc2nc(Nc3c[nH]nc3C)ncc2Cl)c(NS(C)(=O)=O)c1 [Example 2, N-(2-(5-chloro-2-(3-methyl-1H-pyrazol-4-ylamino)pyrimidin-4-ylamino)-5-methoxyphenyl)methanesulfonamide]
IC50 [2]: ≤ 100 nM | IC50 [3]: ≤ 100 nM

Cc1nn(C)cc1Nc1ncc(F)c(Nc2ccccc2NS(C)(=O)=O)n1 [Example 30, N-(2-(2-(1,3-dimethyl-1H-pyrazol-4-ylamino)-5-fluoropyrimidin-4-ylamino)phenyl)methanesulfonamide]
IC50 [2]: 100 to 1000 nM | IC50 [3]: 100 to 1000 nM

COc1ccc(Nc2nc(Nc3cnn(C)c3)ncc2F)c(NS(C)(=O)=O)c1 [Example 21, N-(2-(5-fluoro-2-(1-methyl-1H-pyrazol-4-ylamino)pyrimidin-4-ylamino)-5-methoxyphenyl)methanesulfonamide]
IC50 [2]: ≤ 100 nM | IC50 [3]: 100 to 1000 nM

CC(C)n1ccc(Nc2ncc(Cl)c(Nc3ccccc3NS(C)(=O)=O)n2)n1 [Example 40, N-(2-(5-chloro-2-(1-isopropyl-1H-pyrazol-3-ylamino)pyrimidin-4-ylamino)phenyl)methanesulfonamide]
IC50 [2]: ≤ 100 nM | IC50 [3]: 100 to 1000 nM

CS(=O)(=O)Nc1ccccc1Nc1nc(Nc2ccon2)ncc1Cl [Example 38, N-(2-(5-chloro-2-(isoxazol-3-ylamino)pyrimidin-4-ylamino)phenyl)methanesulfonamide]
IC50 [2]: ≤ 100 nM | IC50 [3]: 1000 to 10000 nM

COc1ccc(Nc2nc(Nc3nonc3C)ncc2Cl)c(NS(C)(=O)=O)c1 [Example 31, N-(2-(5-chloro-2-(4-methyl-1,2,5-oxadiazol-3-ylamino)pyrimidin-4-ylamino)-5-methoxyphenyl)methanesulfonamide]
IC50 [2]: 1000 to 10000 nM | IC50 [3]: 1000 to 10000 nM

CCn1cc(Nc2ncc(F)c(Nc3ccccc3NS(C)(=O)=O)n2)c(C)n1 [Example 37, N-(2-(2-(1-ethyl-3-methyl-1H-pyrazol-4-ylamino)-5-fluoropyrimidin-4-ylamino)phenyl)methanesulfonamide]
IC50 [2]: 100 to 1000 nM | IC50 [3]: 1000 to 10000 nM

Cc1cc(Nc2ncc(Cl)c(Nc3ccccc3NS(C)(=O)=O)n2)nn1C [Example 39, N-(2-(5-chloro-2-(1,5-dimethyl-1H-pyrazol-3-ylamino)pyrimidin-4-ylamino)phenyl)methanesulfonamide]
IC50 [2]: ≤ 100 nM | IC50 [3]: 100 to 1000 nM

Cn1ccc(Nc2ncc(Br)c(Nc3ccccc3NS(C)(=O)=O)n2)n1 [Example 43, N-(2-((5-bromo-2-((1-methyl-1H-pyrazol-3-yl)amino)pyrimidin-4-yl)amino)phenyl)methanesulfonamide]
IC50 [2]: ≤ 100 nM | IC50 [3]: 100 to 1000 nM

COc1ccc(Nc2nc(Nc3cn(C)nc3C)ncc2Cl)c(NS(C)(=O)=O)c1 [Example 18, N-(2-(5-chloro-2-(1,3-dimethyl-1H-pyrazol-4-ylamino)pyrimidin-4-ylamino)-5-methoxyphenyl)methanesulfonamide]
IC50 [2]: ≤ 100 nM | IC50 [3]: ≤ 100 nM

COc1ccc(Nc2nc(Nc3ccn(C)n3)ncc2Cl)c(NS(C)(=O)=O)c1 [Example 4, N-(2-(5-chloro-2-(1-methyl-1H-pyrazol-3-ylamino)pyrimidin-4-ylamino)-5-methoxyphenyl)methanesulfonamide]
IC50 [2]: 100 to 1000 nM and ≤ 100 nM | IC50 [3]: 100 to 1000 nM

COc1cc(Nc2ncc(F)c(Nc3ccc4c(n3)NC(=O)C(C)(C)O4)n2)cc(OC)c1OC [Example R406]
inflammation and bone erosion [4]: suppresses inflammation and bone erosion

CCn1ccc(Nc2ncc(Cl)c(Nc3ccccc3NS(C)(=O)=O)n2)n1 [Example 42, N-(2-(5-chloro-2-(1-ethyl-1H-pyrazol-3-ylamino)pyrimidin-4-ylamino)phenyl)methanesulfonamide]
IC50 [2]: ≤ 100 nM | IC50 [3]: 100 to 1000 nM
